Laboratory results published in US20120252896A1, “METHODS AND COMPOSITIONS FOR MODULATION OF T-CELLS VIA THE KYNURENINE PATHWAY” (priority 2009, published 2012).
Like-named read-outs stand apart in the source and are kept apart here.

Legend:
[1] = test system: Th17 cells (CD4+ T cells under Th17 differentiating conditions; IL-17 production); assay: IL-17 production by differentiating Th17 cells in vitro (ELISA); type: cell-based, mouse (C57BL/6); conditions: Mus musculus
[2] = test system: Th1 cells (IFNγ production); assay: IFNγ production by differentiating Th1 cells in vitro (ELISA); type: cell-based, mouse (C57BL/6); conditions: Mus musculus
[3] = test system: differentiating Th17 cells; assay: Inhibition of IL-17 production by CD4+ T cells under Th17 differentiating conditions (ELISA); type: cell-based, C57BL/6 mice; conditions: for IC50 Th17 (IL-17 production): differentiating Th17 cells in vitro, 6 days of culture, average ±S.E.; for inhibitory effect on IL-17 production: within the range of concentrations assayed
[4] = test system: differentiating Th1 cells; assay: Inhibition of IFNγ production during Th1 differentiation (ELISA); type: cell-based, C57BL/6 mice; conditions: differentiating Th1 cells in vitro, 6 days of culture, average ±S.E.
Procedure: For comparison studies with Th1 cells, T cells were differentiated in the same in vitro conditions, with only anti-murine IL-4 neutralizing antibody, recombinant murine IL-2 (10 ng/ml, eBioscience) and recombinant murine IL-12p70 (20 ng/ml, BD Biosciences) and CD3/CD28 stimulation. The concentration of IFN in culture supernatants was measured by ELISA (BD Biosciences). L-kynurenine, 3′-hydroxy-DL-kynurenine, 3′-hydroxyanthranilic acid, anthranilic acid and quinolinic acid (Sigma) were dissolved in RPMI medium under agitation at 1 mM concentration and sterile filtered. Tryptophan metabolites were added individually or in combination, in twofold dilutions, to the differentiating medium of Th1 or Th17 cells for the 6 days of culture.

[5] = 144 h, Table II, differentiating Th17 cells, 6 days, average ± S.E., read-out: IC50, IL-17 production, Th17
[6] = Th17 differentiating conditions, read-out: IC50, IL-17 production
[7] = 144 h, Table II, differentiating Th1 cells, 6 days, average ± S.E., read-out: IC50, IFNγ production, Th1

Row | Structure (SMILES) | IC50 [1, 5] [µM] | IC50 [1, 6] [µM] | IC50 [2, 7] [µM] | IC50 ([2]; read-out: IC50, IFNγ production during Th1 differentiation) [µM] | IC50 Th17 (IL-17 production) [3] | inhibitory effect on IL-17 production [3] | IC50 Th1 (IFNγ production) [4] | IC50 ([4]; Mus musculus, 144 h) [µM]
1 | Nc1c(O)cccc1C(=O)O [3′-Hydroxyanthranilic acid, 3′-hydroxyanthranilic acid] | 27.7 ± 3.7 | 27.7 ± 3.7 | 57.6 ± 1 | 57.6 ± 1 | – | – | – | –
2 | Nc1c(O)cccc1C(=O)CC(N)C(=O)O (racemic) [3′-Hydroxy-DL-kynurenine, 3′-hydroxy-DL-kynurenine] | 68.1 ± 1.4 | 68.1 ± 1.4 | 153.8 ± 1.1 | – | – | – | – | –
3 | Nc1ccccc1C(=O)C[C@H](N)C(=O)O [L-Kynurenine, L-kynurenine] | 100.8 ± 1 | 100.8 ± 1 | 154.4 ± 1.2 | – | – | – | – | –
4 | Nc1ccccc1C(=O)O [Anthranilic acid, anthranilic acid] | – | – | – | – | No inhibition | no inhibitory effect | No inhibition | –
5 | O=C(O)c1cccnc1C(=O)O [Quinolinic acid, quinolinic acid] | – | – | – | – | No inhibition | no inhibitory effect | – | 112 ± 1.4
